TGI and GI50 data for 15 molecules are collected here from PubChem BioAssay (NCI).

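Where inhibition never reached the appropriate level, the endpoint shown equals the highest concentration tested. Otherwise, values were interpolated linearly from a five-concentration, 48-hour dose response in 96-well plates. GI50 is the concentration that inhibits growth by half. TGI denotes the concentration required for complete inhibition of growth.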

Holding throughout (test): inhibition of tumour cell growth, NCI panel, 48 h
Assay [1] relates to SK-OV-3 ovarian.
In assay [2] the test system is NCI-H23 lung.
Assay [3] deals with SK-MEL-28 melanoma.
In assay [4] the test system is SK-MEL-2 melanoma.
Assay [5] has as its system DMS 114 small cell lung.
In assay [6] the test system is LXFL 529 NSCLC.
For assay [7], the system named is SNB-78 CNS.
The test system of assay [8] is SNB-75 CNS.
In assay [9] the test system is DMS 273 small cell lung.
Assay [10] deals with PC-3 prostate.
For assay [11], the system named is DU-145 prostate.

For `O=C1OC(CCCl)(c2ccccc2)CC1CN1CCOCC1` (stereo unspecified), the TGI in assay [1] is > 100 µM; in assay [2], 23.7 µM; in assay [3], 36.9 µM; in assay [4] it was 57.5 µM; in assay [5] it was 42.9 µM; in assay [6] it was 33.7 µM. Further, the TGI in assay [7] amounted to 81.5 µM; in [8] it was 51.7 µM.
Regarding `Brc1cccc(C2SCc3nc4ccccc4n32)c1` (stereo unspecified), the TGI in [1] is 65 µM; in assay [2], 44.7 µM; in assay [3], 47.9 µM; in assay [5], 35.2 µM; in assay [6] it was > 100 µM; in assay [7] it was 99.2 µM. The same molecule showed a TGI in [8] of 3.51 µM.
For `CCOC(=O)C(C)(c1cn(C)c2ccccc12)c1cn(C)c2ccccc12`, the TGI in [1], in [2], in assay [3], in [4], in assay [5] and in assay [6] was > 100 µM throughout. Further, the results for the TGI in [9], in [7] and in [8] were > 100 µM, > 100 µM and 51.9 µM, respectively.
Take `COc1ccc(OC)c(NC(=O)CCC/C(CC(=O)c2ccc(O)c(OC)c2)=N\NC(=O)C[N+](C)(C)C)c1`: the TGI in assay [1], in assay [2], in assay [3], in assay [4], in assay [5] and in [6] was > 100 µM in each case. For the same molecule, the TGI in [9] and in assay [8] was > 100 µM each time.
On to `COc1cc2c(cc1OC(=O)CC(C)O)C1C(OC2=O)C(OC(C)=O)C=C2CCN(C)[C@H]21` (stereo partly specified), for which the TGI is 57.2 µM in assay [1]; > 100 µM in [2]; > 100 µM in [3]; 41.5 µM in assay [4]; > 100 µM in [6]; > 100 µM in [9]. The TGI turned out to be 68.8 µM in assay [7] and 38.4 µM in [8].
On to `CCOC(=O)C1=C(NC)OC/C1=N\NC(=O)c1ccccc1O`, for which the TGI in [1] is > 100 µM; in assay [2], 54.9 µM; in assay [3], > 100 µM; in [4], 48.2 µM; in assay [5], 89.6 µM; in [6] it was > 100 µM. The TGI in [9], in assay [7] and in [8] was > 100 µM throughout.
For `CCOC(=O)c1oc2ccc(OC)c3c2c1CCC3`, the TGI in [1], in assay [2], in [3], in [4], in [5] and in assay [6] was > 100 µM in each case. The TGI in [9], in assay [7] and in assay [8] was > 100 µM in each case.
In the case of `CN(C)c1nc(=Nc2ccc3ccccc3c2)ss1`, the TGI in assay [1] is > 100 µM; in assay [3], > 100 µM; in [4] it was > 100 µM; in [5], 41.3 µM; in assay [6] it was > 100 µM; in assay [7] it was > 100 µM. Besides, the TGI in assay [8] was > 100 µM.
In the case of `COC1CC(OS(=O)(=O)c2ccc(C)cc2)C(OC(=O)c2ccccc2)C(C)O1` (stereo unspecified), the GI50 in [1], in [2], in assay [3], in assay [4], in [6] and in assay [7] was > 100 µM throughout. In [8], the GI50 is > 10 µM. Further, the TGI in assay [1], in assay [2], in assay [3], in [4], in assay [5] and in assay [6] was > 100 µM in each case. The figures for the TGI in assay [9], in assay [7] and in [8] were > 10 µM, > 100 µM and > 100 µM, respectively.
As to `CCOC(=O)c1nc2ccc([N+](=O)[O-])cc2c2c1CCO2`, the TGI in assay [1], in [2], in [3], in [4], in assay [5] and in assay [6] was > 100 µM throughout. Moreover, the TGI in assay [9], in assay [7] and in assay [8] was > 100 µM in each case.
Regarding `CC(=O)OC1CCn2nnc(CO[Si](C)(C)C(C)(C)C)c21` (stereo unspecified), the TGI in [1], in assay [2], in [3], in [4], in assay [5] and in [6] was > 100 µM each time. The TGI in [9] and in assay [8] was > 100 µM in each case.
`COc1cc(C(=O)C/C(CCC(=O)Nc2ccccc2[N+](=O)[O-])=N\NC(=O)CC#N)ccc1O`: the TGI in assay [1], in [2], in [3], in [4], in assay [6] and in assay [9] was > 100 µM in each case. The TGI in assay [8] is > 100 µM.
As to `COc1ccc(C(OCC2OC(n3ccc(NC(=O)c4ccccc4)nc3=O)C(O)C2O)(c2ccccc2)c2ccccc2)cc1` (stereo unspecified), the TGI in [1] came to 20.6 µM; in assay [2], 3 µM; in assay [3], 7.95 µM; in assay [4] it was 6.68 µM; in [10], 8.28 µM; in assay [11] it was 10.3 µM. Also, the TGI in assay [8] came out at 22 µM.
As for `Cc1c(C#N)c(=O)[nH]c(=O)n1CCN1CCN(C(=O)NCCCCCCNC(=O)N2CCN(CCn3c(C)c(C#N)c(=O)[nH]c3=O)CC2)CC1`, the TGI in assay [1], in assay [2], in [3], in assay [5], in [6] and in assay [9] was > 100 µM in each case. Moreover, the TGI in assay [7] and in [8] was > 100 µM each time.
On to `COc1ccc(C2=C(Cl)c3cc(OC)c(OC)cc3C2Cl)cc1OC` (stereo unspecified), for which the TGI in [1] amounted to 53.9 µM; in assay [2] it was 38.2 µM; in assay [3] it was 34.5 µM; in assay [9], 30.4 µM; in assay [7], 75.5 µM; in assay [8], 33.4 µM.
